Assay results as given in ChEMBL document CHEMBL1131647, “Enzymatic synthesis of a modified phospholipid and its evaluation as a substrate for B. cereus phospholipase C” (Bioorg Med Chem Lett, 1998).

Tests used:
[1] = test system: Phospholipase C (Bacillus cereus); assay: Compound was evaluated for its […] activity against phospholipase C from Bacillus cereus
[2] = test system: Phospholipase C (Bacillus cereus); assay: Critical Micellar Concentration for the compound was calculated for phospholipase C from Bacillus cereus

SMILES | k cat [1] | CMC [2]
CCCCCC(=O)OCC(COP(=O)(O)OCCC(C)(C)C)OC(=O)CCCCC (stereo not drawn) | 5.2 s⁻¹ | 9.5 mM
CCCCCC(=O)OCC(COP(=O)([O-])OCC[N+](C)(C)C)OC(=O)CCCCC (stereo not drawn) | 1000 s⁻¹ | 
